Measurements: the NIST ThermoML archive (doi:10.1021/je900414p)

Test: xn = mol fraction of the nth substance listed
Details: Liquid

CCOS(=O)(=O)[O-].CCn1cc[n+](C)c1 [1-ethyl-3-methylimidazolium ethyl sulfate] + CCO
mass density [kg/m3]
Details | 100 kPa | 2500 kPa | 5000 kPa | 10000 kPa | 15000 kPa | 20000 kPa | 25000 kPa | 30000 kPa | 35000 kPa
298.15 K, x1 = 0.05056 | 855.98 | 857.88 | 859.83 | 863.62 | 867.22 | 870.7 | 874.05 | 877.28 | 880.4
298.15 K, x1 = 0.103 | 913.93 | 915.61 | 917.4 | 920.89 | 924.24 | 927.48 | 930.6 | 933.63 | 936.57
298.15 K, x1 = 0.1247 | 935.16 | 936.81 | 938.54 | 941.91 | 945.16 | 948.3 | 951.34 | 954.29 | 957.15
298.15 K, x1 = 0.2126 | 1003.9 | 1005.45 | 1007.01 | 1010.07 | 1013.02 | 1015.88 | 1018.67 | 1021.38 | 1024.03
298.15 K, x1 = 0.2919 | 1052 | 1052.97 | 1054.41 | 1057.22 | 1059.95 | 1062.62 | 1065.22 | 1067.75 | 1070.23
298.15 K, x1 = 0.3185 | 1065.62 | 1066.9 | 1068.3 | 1071.05 | 1073.73 | 1076.33 | 1078.88 | 1081.37 | 1083.79
298.15 K, x1 = 0.4198 | 1109.11 | 1110.35 | 1111.65 | 1114.21 | 1116.72 | 1119.15 | 1121.54 | 1123.89 | 1126.17
298.15 K, x1 = 0.4847 | 1131.56 | 1132.76 | 1133.99 | 1136.46 | 1138.86 | 1141.21 | 1143.53 | 1145.8 | 1148.02
298.15 K, x1 = 0.5713 | 1157.07 | 1158.2 | 1159.39 | 1161.74 | 1164.05 | 1166.31 | 1168.52 | 1170.7 | 1172.85
298.15 K, x1 = 0.6827 | 1183.93 | 1185.01 | 1186.16 | 1188.41 | 1190.6 | 1192.77 | 1194.89 | 1197 | 1199.05
298.15 K, x1 = 0.7919 | 1205.61 | 1206.51 | 1207.59 | 1209.76 | 1211.88 | 1213.98 | 1216.03 | 1218.05 | 1220.04
298.15 K, x1 = 0.9317 | 1227.5 | 1228.53 | 1229.57 | 1231.66 | 1233.72 | 1235.74 | 1237.73 | 1239.69 | 1241.63
303.15 K, x1 = 0.05056 | 851.9 | 853.85 | 855.87 | 859.72 | 863.43 | 866.98 | 870.39 | 873.69 | 876.89
303.15 K, x1 = 0.103 | 910.06 | 911.7 | 913.54 | 917.1 | 920.52 | 923.82 | 927 | 930.09 | 933.1
303.15 K, x1 = 0.1247 | 931.25 | 932.93 | 934.69 | 938.12 | 941.44 | 944.64 | 947.74 | 950.74 | 953.67
303.15 K, x1 = 0.2126 | 1000.1 | 1001.68 | 1003.26 | 1006.36 | 1009.37 | 1012.29 | 1015.12 | 1017.88 | 1020.58
303.15 K, x1 = 0.2919 | 1048.63 | 1049.46 | 1050.92 | 1053.74 | 1056.51 | 1059.18 | 1061.79 | 1064.33 | 1066.82
303.15 K, x1 = 0.3185 | 1061.99 | 1063.29 | 1064.7 | 1067.49 | 1070.22 | 1072.86 | 1075.44 | 1077.96 | 1080.42
303.15 K, x1 = 0.4198 | 1105.54 | 1106.82 | 1108.14 | 1110.73 | 1113.28 | 1115.76 | 1118.18 | 1120.55 | 1122.89
303.15 K, x1 = 0.4847 | 1128.01 | 1129.22 | 1130.5 | 1132.99 | 1135.43 | 1137.83 | 1140.16 | 1142.46 | 1144.71
303.15 K, x1 = 0.5713 | 1153.59 | 1154.71 | 1155.92 | 1158.31 | 1160.66 | 1162.94 | 1165.19 | 1167.4 | 1169.59
303.15 K, x1 = 0.6827 | 1180.46 | 1181.59 | 1182.73 | 1185 | 1187.24 | 1189.45 | 1191.6 | 1193.74 | 1195.84
303.15 K, x1 = 0.7919 | 1202.24 | 1203.1 | 1204.19 | 1206.38 | 1208.54 | 1210.64 | 1212.73 | 1214.77 | 1216.82
303.15 K, x1 = 0.9317 | 1224.05 | 1225.06 | 1226.12 | 1228.23 | 1230.32 | 1232.36 | 1234.37 | 1236.36 | 1238.34
